Measured values as given in US6995283B2, “Benzophenones as inhibitors of reverse transcriptase” (priority 2001, dated 2006).
Values after ≈ are worked out from the molar mass of the structure shown. Structures can show the parent of a compound that is named as a salt. Where two headings read alike, the source gives them in different places. Values belong to the molecule of their own block, whether it stands above or below them.

Assays:
Solubility = assay type: physicochemical
Description: A stir bar was put in the vial. The vials were closed with caps and placed on stir plate. […] After equilibration, the samples were centrifuged. An accurate aliquot of clear solution was transferred to a HPLC vial by micropipette. The solubility was determined by HPLC with UV detector and against standard.

HIV-1 wild type virus = assay: Anti-HIV activity of parent compounds, wild type virus (Table 1; HeLa-CD4-LTR-β-gal cell assay); assay type: cell-based; conditions: Human immunodeficiency virus 1, read-out: Wt
Description: (§1) The HeLa cell assay was performed according to a modifcation of Kimpton J. and Emerman M., Detection of replication-competent and pseudotyped human inmmunodeficiency virus with a sensitive cell line on the basis of activation of an integrated β-galactosidase gene, J. Virol. 66:2232-2239 (1992), in which HIV-1 infection is detected by the activation of an HIV-LTR driven β-galactosidase reporter that is integrated into the genome of a CD4^+ HeLa cell line. Quantitation of β-galactosidase is achieved by measuring the activation of a chemiluminescent substrate (Tropix). The concentration of each compound required to inhibit 50% (IC50) of the HIV-1 induced β-galactosidase signal, relative to untreated controls, was determined for each isogenic, recombinant virus.
(§2) HeLa-CD4-LTR-β-gal cells are propagated in DMEM containing 10% fetal bovine serum+0.2 mg/ml geneticin+0.1 mg/ml hygromycin B. Cells are split by standard trypsinization when confluency reaches 80% (roughly every 2 to 3 days).
(§3) DNA encoding the HIV-1 reverse transcriptase was subcloned from a M13 phage into a general shuttle vector, pBCSK+, as a ˜1.65 kbp EcoRI/HindIII ended DNA fragment. The HIV DNA insert of the resulting plasmid, pRT2, was completely sequenced on both strands prior to use in site directed mutagenesis experiments. Specific amino acid replacements were made using Stratagene Quick Change reagents and mutagenic oligonucleotides from Oligos. […]
(§4) Mutant HIV-1 strains were isolated by a modified Recombinant Virus Assay (Kellamn P. and Larder B., Recombinant virus assay: a rapid, phenotypic assay for assessment of drug susceptibility of human immunodeficiency virus type 1 isolates, Antimicrobial Agents and Chemotherapy, 38:23-30,1994). […] Transfected cell cultures were expanded and monitored until syncitia formation and CPE were extensive. […]
(§5) HIV-1 virus stocks must be titered in the MAGI assay system to establish the appropriate infecting dose. The endpoint for this assay is relative light units (RLUs), and titer is recorded as RLUs/ml. […]

[1] = Oral bioavailability in male Sprague-Dawley rats; assay type: in vivo, Sprague-Dawley (CD) rat; conditions: for AUC(0-inf): rat, plasma
Description: Methods used were generally as described in Example 53, with the following modifications: Sample Collection—In addition to anticoagulant (EDTA), an enzyme inhibitor cocktail containing 50 μL of 100 mM AEBSF (4-(2-aminoethyl)benzenessulfonylfluoride HCl, CalBioChem, cat. no. 101500); 200 mM Benzamide(CalBioChem, cat. no. 199001); and 200 mM EACA (Epislon Amino-n-caproic acid, CalBioChem cat. no. 1381) in FTA Hemaglutionation Buffer (Becton Dickson, cat. no. 4311248) per 1 mL of blood was added to rat blood samples at the time of collection.
HPLC-MS-MS Conditions—Chromatography was performed on a Phenomenex Aqua C18 HPLC Mercury Cartridge (3-micron particle size, 20 mm×2 mm id) or Luna C18 column (50×2 mm).

Nev-R mutant virus = assay: Anti-HIV activity of parent compounds, Nev-R mutant virus (Table 1; HeLa-CD4-LTR-β-gal cell assay); assay type: cell-based, HIV-1; conditions: Human immunodeficiency virus 1, read-out: Nev-R
Description: as §1, §2, §3, §4, §5

[2] = Pharmacokinetic studies in male beagle dogs; assay type: in vivo, beagle dog
Description: Compound 34 (634A in tables and on plots) was dosed as a solid as well as in solution form to male beagle dogs according to the following protocol. Plasma samples were analyzed using the following methods:
Blood samples from the test animals were drawn at periodic intervals, before, and after administration of the test articles. The samples were dispensed into chilled (˜+4° C.) blood tubes containing EDTA anticoagulant which were stored “on ice” (˜+4° C.) prior to centrifugation and separation of the plasma fractions. The plasma samples were transferred to frozen storage (−20° C.) within 30 minutes of blood sampling.
The plasma samples were thawed at room temperature, vortex-mixed for 10 seconds, and 100 μL aliquots transferred to 96-well micro-plates. […]
The supernatant fractions of the wells were transferred to a fresh micro-plate and then evaporated to dryness at 37° C. under a stream of (O2-free) nitrogen. The well residues were reconstituted in 100 μL volumes of acetonitrile:water:acetic acid (40:59.9:0.1 v/v/v) and 20 μL volumes were analyzed by HPLC-MS-MS. […]
The measurement of signal peaks areas, calibration and quantification were carried out using the Turbo-Quan V1.5 (Sciex Inc.) data acquisition and processing software (DAQ) suite. […]

Structure (SMILES): Cc1cc(S(N)(=O)=O)ccc1NC(=O)COc1ccc(Cl)cc1C(=O)c1cc(Cl)cc(C#N)c1 [Compound 40, N-[4-(aminosulfonyl)-2-methylphenyl]-2-[4-chloro-2-(3-chloro-5-cyanobenzoyl)phenoxy]acetamide]
- IC50 (HIV-1 wild type virus): 0.5 to 1.8 nM
- Mean Exposures of 40 Fapp ([1]; free acid, Amorph., PO (soln) 1 mg/kg, DMSO:Tween-80:5% Mannitol (20:0.1:79.9)): 7%
- AUC(0-inf) ([1]; free acid, Amorph., IV 1 mg/kg, PEG400:Solutol:Water (30:20:50), read-out: Mean Exposures of 40 AUC0-∞): 1740 ± 363 ng·h/mL
- AUC(0-inf) ([1]; free acid, Amorph., PO (soln) 1 mg/kg, DMSO:Tween-80:5% Mannitol (20:0.1:79.9), n = 1, read-out: Mean Exposures of 40 AUC0-∞): 128 ng·h/mL
- solubility (Solubility; fassgf or other biorelevant, thermodynamic from solid, SIF, Crystal Form 1, read-out: Solubility): 0.0029 mg/mL (≈ 5.59 µM)
- IC50 (Nev-R mutant virus): 0.4 to 1.2 nM

Structure (SMILES): CCC(=O)NS(=O)(=O)c1ccc(NC(=O)COc2ccc(Cl)cc2C(=O)c2cc(Cl)cc(C#N)c2)c(C)c1.[Ca] [Calcium salt, 2-[4-chloro-2-(3-chloro-5-cyanobenzoyl)phenoxy]-N-{2-methyl-4-[(propionylamino)sulfonyl]phenyl}acetamide, Calcium Salt, Form 2]
- solubility (Solubility; water, Crystal Form 2): 0.7 mg/mL

Structure (SMILES): Cc1cc(S(N)(=O)=O)ccc1NC(=O)COc1ccc(Cl)cc1C(=O)c1cc(C#N)cc(C(F)(F)F)c1 [Compound 58]
- IC50 (HIV-1 wild type virus): 2.4 nM
- IC50 (Nev-R mutant virus): 0.9 nM

Structure (SMILES): Cc1cc(S(N)(=O)=O)ccc1NC(=O)COc1ccc(Cl)cc1C(=O)c1cc(F)cc(C(F)(F)F)c1 [Compound 71]
- IC50 (HIV-1 wild type virus): 0.1 to 28 nM
- IC50 (Nev-R mutant virus): 0.4 to 14 nM

Next, values leading:

- solubility (in words) (Solubility; in comparison with compound 40): improved solubility
Structure (SMILES): CCC(=O)NS(=O)(=O)c1ccc(NC(=O)COc2ccc(Cl)cc2C(=O)c2cc(Cl)cc(C#N)c2)c(C)c1 [Compound 41, 2-[4-chloro-2-(3-chloro-5-cyanobenzoyl)phenoxy]-N-{2-methyl-4-[(propionylamino)sulfonyl]phenyl}acetamide]

- appearance of active inhibitor compound 40 in plasma after administration [2]: appears in the plasma
- bioavailability after oral administration (in words) ([2]; oral): excellent bioavailability
- appearance of active inhibitor compound 40 in plasma after administration [1]: appears in the plasma
- bioavailability after oral administration (in words) ([1]; oral, in comparison to the parent compound 40): improved bioavailability
- solubility (Solubility; water, thermodynamic from solid, water, Amorphous, read-out: Solubility): > 100 mg/mL
- solubility (Solubility; water, thermodynamic from solid, water, Crystal Form 1, read-out: Solubility): 92 mg/mL
- solubility (Solubility; water, thermodynamic from solid, water, Crystal Form 4, read-out: Solubility): 2.5 mg/mL
- solubility (Solubility; water, thermodynamic from solid, water, Crystal Form 9, read-out: Solubility): > 100 mg/mL
- solubility (Solubility; water, thermodynamic from solid, water, Crystal Form 10, read-out: Solubility): > 100 mg/mL
- solubility (Solubility; water, thermodynamic from solid, water, Crystal Form 12, read-out: Solubility): > 100 mg/mL
Structure (SMILES): CCC(=O)NS(=O)(=O)c1ccc(NC(=O)COc2ccc(Cl)cc2C(=O)c2cc(Cl)cc(C#N)c2)c(C)c1 [Compound 34, 2-[4-chloro-2-(3-chloro-5-cyanobenzoyl)phenoxy]-N-{2-methyl-4-[(propionylamino)sulfonyl]phenyl}acetamide, Sodium Salt]
